Measured values from ChEMBL document CHEMBL1649399, “Identification of a reduction product of aristolochic acid: implications for the metabolic activation of carcinogenic aristolochic acid” (J Nat Prod, 2010).
Activity calls are given as the source filed them. The calls are words filed in the database; no cut-off is given here.

The compounds below were run on Nucleic Acid (assay: Binding affinity to DNA assessed as DNA adduct formation).
Type: nucleic-acid assay

SMILES | Activity
O=C1Nc2c(/N=c3\[nH]cnc4c3ncn4[C@H]3C[C@H](O)[C@@H](CO)O3)c3ccccc3c3c4c(cc1c23)OCO4 | Active
COc1cccc2c1c(Nc1nc3c(ncn3[C@H]3C[C@H](O)[C@@H](CO)O3)c(=O)[nH]1)c1c3c(cc4c(c32)OCO4)C(=O)N1 | Active
O=C1Nc2c(Nc3nc4c(ncn4[C@H]4C[C@H](O)[C@@H](CO)O4)c(=O)[nH]3)c3ccccc3c3c4c(cc1c23)OCO4 | Active
COc1cccc2c1c(/N=c1\[nH]cnc3c1ncn3[C@H]1C[C@H](O)[C@@H](CO)O1)c1c3c(cc4c(c32)OCO4)C(=O)N1 | Active
O=C1Nc2cc3ccccc3c3c4c(cc1c23)OCO4 | Active
COc1cccc2c1cc1c3c(cc4c(c32)OCO4)C(=O)N1 | Active
CC(=O)Nc1ccc2c(c1)Cc1ccccc1-2 | Active
